Assay results reported in ChEMBL document CHEMBL1138255, “Enantioselective synthesis and vanilloid activity evaluation of 1-beta-(p-methoxycinnamoyl)polygodial, an antinociceptive compound from Drymis winteri barks” (Bioorg Med Chem Lett, 2007).

Key:
[1] = target: Transient receptor potential cation channel subfamily V member 1 (Homo sapiens) (UniProt Q8NER1); assay: Activity at human TRPV1 receptor expressed in HEK293 cells assessed as calcium influx relative to ionomycin; assay type: cell-based
Sequence of Transient receptor potential cation channel subfamily V member 1 (Homo sapiens) (Q8NER1 whole entry): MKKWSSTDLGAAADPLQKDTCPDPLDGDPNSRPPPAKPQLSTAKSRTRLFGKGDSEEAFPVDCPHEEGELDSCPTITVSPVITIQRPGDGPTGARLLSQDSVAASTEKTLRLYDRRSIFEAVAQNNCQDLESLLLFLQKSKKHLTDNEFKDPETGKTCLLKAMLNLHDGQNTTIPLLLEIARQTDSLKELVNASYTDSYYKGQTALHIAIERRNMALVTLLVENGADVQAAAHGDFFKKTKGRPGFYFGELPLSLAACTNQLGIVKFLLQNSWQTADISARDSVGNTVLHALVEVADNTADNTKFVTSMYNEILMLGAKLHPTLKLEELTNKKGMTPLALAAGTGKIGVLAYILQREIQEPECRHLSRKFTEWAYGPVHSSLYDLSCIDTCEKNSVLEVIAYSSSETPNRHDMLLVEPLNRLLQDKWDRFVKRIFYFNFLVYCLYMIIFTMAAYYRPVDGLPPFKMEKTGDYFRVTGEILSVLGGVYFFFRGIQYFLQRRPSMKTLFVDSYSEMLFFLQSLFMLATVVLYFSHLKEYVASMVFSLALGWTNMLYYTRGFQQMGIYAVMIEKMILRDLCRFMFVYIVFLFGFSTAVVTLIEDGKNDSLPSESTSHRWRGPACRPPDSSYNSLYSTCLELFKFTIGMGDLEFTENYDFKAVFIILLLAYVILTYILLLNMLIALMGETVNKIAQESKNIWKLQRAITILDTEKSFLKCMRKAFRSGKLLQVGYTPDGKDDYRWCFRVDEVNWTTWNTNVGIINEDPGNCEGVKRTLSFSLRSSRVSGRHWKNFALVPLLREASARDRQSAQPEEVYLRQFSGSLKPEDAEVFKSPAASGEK

[2] = target: Transient receptor potential cation channel subfamily V member 1 (Homo sapiens) (UniProt Q8NER1); assay: Activity at human TRPV1 receptor expressed in HEK293 cells assessed as calcium influx in presence of 5-iodo-resiniferatoxin; assay type: cell-based

| Activity [1] | SMILES | Activity [2] |
| --- | --- | --- |
| 0% | COc1ccc(/C=C/C(=O)O[C@@H]2CCC(C)(C)C3CC=C(CO)[C@H](CO)[C@]32C)cc1 (some centres undefined) |  |
| 0% | CC1(C)CC[C@@H](O)[C@@]2(C)C1CC=C(C=O)[C@@H]2C=O (some centres undefined) |  |

| SMILES | Activity [1] | Activity [2] |
| --- | --- | --- |
| COc1ccc(/C=C/C(=O)O[C@@H]2CCC(C)(C)C3CC=C(C=O)[C@H](C=O)[C@]32C)cc1 (some centres undefined) | 40.4% | 22% |
